Data from PubChem BioAssay AID1963835 (Molecular Pharmacology Branch, DTP, NCI, 2024).

Test system: 699152-130-R-J1-PDC complex spheroid viability
Assay: Anticancer human tumor 699152-130-R-J1-PDC patient-derived pancreatic carcinoma cell line growth inhibition [POLQ]
Conditions: for IC50: curve of first compound; for viability, T/C: stronger effect = lower value; active = viability on the fitted dose curve at most 10% of control; inactive = the rest
In short: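 PDC + HUVEC + MSC complex spheroids; POLQ inhibitors ± partner drugs; top conc. at/near clinical Cmax, else 10 microM (SN-38 1 microM), half-log dilutions; 37 degrees C, 5% CO2.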
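Also: spheroids exposed to agents for 7 days before viability reading.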
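For viability, T/C in this document: percent of DMSO vehicle control viability so 100% = vehicle and 0% = no viable signal.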

CC(=O)O[C@H]1C(=O)[C@@]2(C)[C@H]([C@H](OC(=O)c3ccccc3)[C@]3(O)C[C@H](OC(=O)[C@H](O)[C@@H](NC(=O)c4ccccc4)c4ccccc4)C(C)=C1C3(C)C)[C@]1(OC(C)=O)CO[C@@H]1C[C@@H]2O + Cc1cccc(N(C)C(=O)C2C(O)CCN2c2nc(C)cc(C(F)(F)F)c2C#N)c1
inactive: viability, T/C (second compound 0.0316 µM, first compound 0.00949 µM) 83.5% | viability, T/C (second compound 0.0316 µM, first compound 0.03 µM) 57.6% | viability, T/C (second compound 0.0316 µM, first compound 0.0949 µM) 56.1% | viability, T/C (second compound 0.0316 µM, first compound 0.3 µM) 56.9% | viability, T/C (second compound 0.0316 µM, first compound 0.949 µM) 67% | viability, T/C (second compound 0.0316 µM, first compound 3 µM) 65.9% | viability, T/C (second compound 0.1 µM, first compound 0.00949 µM) 79.7% | viability, T/C (second compound 0.1 µM, first compound 0.03 µM) 57.1% | viability, T/C (second compound 0.1 µM, first compound 0.0949 µM) 51% | viability, T/C (second compound 0.1 µM, first compound 0.3 µM) 57.7% | viability, T/C (second compound 0.1 µM, first compound 0.949 µM) 72.2% | viability, T/C (second compound 0.1 µM, first compound 3 µM) 64.9% | viability, T/C (second compound 0.316 µM, first compound 0.00949 µM) 74.5% | viability, T/C (second compound 0.316 µM, first compound 0.03 µM) 60.9% | viability, T/C (second compound 0.316 µM, first compound 0.0949 µM) 53.3% | viability, T/C (second compound 0.316 µM, first compound 0.3 µM) 59.4% | viability, T/C (second compound 0.316 µM, first compound 0.949 µM) 64.9% | viability, T/C (second compound 0.316 µM, first compound 3 µM) 64.1% | viability, T/C (second compound 1 µM, first compound 0.00949 µM) 81.2% | viability, T/C (second compound 1 µM, first compound 0.03 µM) 54.8% | viability, T/C (second compound 1 µM, first compound 0.0949 µM) 57.9% | viability, T/C (second compound 1 µM, first compound 0.3 µM) 61.3% | viability, T/C (second compound 1 µM, first compound 0.949 µM) 62.4% | viability, T/C (second compound 1 µM, first compound 3 µM) 71.8% | viability, T/C (second compound 3.16 µM, first compound 0.00949 µM) 82.8% | viability, T/C (second compound 3.16 µM, first compound 0.03 µM) 62.1% | viability, T/C (second compound 3.16 µM, first compound 0.0949 µM) 58.8% | viability, T/C (second compound 3.16 µM, first compound 0.3 µM) 65.2% | viability, T/C (second compound 3.16 µM, first compound 0.949 µM) 69.7% | viability, T/C (second compound 3.16 µM, first compound 3 µM) 79.1% | viability, T/C (second compound 10 µM, first compound 0.00949 µM) 84% | viability, T/C (second compound 10 µM, first compound 0.03 µM) 57% | viability, T/C (second compound 10 µM, first compound 0.0949 µM) 69.1% | viability, T/C (second compound 10 µM, first compound 0.3 µM) 65.9% | viability, T/C (second compound 10 µM, first compound 0.949 µM) 72.1% | viability, T/C (second compound 10 µM, first compound 3 µM) 82.8%
> 3 µM: IC50 (second compound 0.0316 µM) | IC50 (second compound 0.1 µM) | IC50 (second compound 0.316 µM) | IC50 (second compound 1 µM) | IC50 (second compound 3.16 µM) | IC50 (second compound 10 µM)
